# Source: US7910600B2, “Therapeutic kinase modulators” (Cylene Pharmaceuticals, Inc., priority 2007, dated 2011)
# System: BxPC3
# Assay: Cell proliferation assay (Alamar Blue), BxPC3
# Type: cell-based
# Conditions: Homo sapiens, BXPC-3; BxPC3 cell line; read-out: Bx-PC3
# Procedure: (§1) A representative cell-proliferation assay protocol using Alamar Blue dye (stored at 4° C., use 20 ul per well) is described hereafter.
# (§2) 96-Well Plate Setup and Compound Treatment
# (§3) • a. Split and trypsinize cells. • b. Count cells using hemocytometer. • c. Plate 4,000-5,000 cells per well in 100 μl of medium and seed into a 96-well plate according to the following plate layout. Add cell culture medium only to wells B10 to B12. Wells B1 to B9 have cells but no compound added.
# (§4) • d. Add 100 μl of 2× drug dilution to each well in a concentration shown in the plate layout above. At the same time, add 100 μl of media into the control wells (wells B10 to B12). Total volume is 200 μl/well. • e. Incubate four (4) days at 37° C., 5% CO2 in a humidified incubator. • f. Add 20 μl Alamar Blue reagent to each well. • g. Incubate for four (4) hours at 37° C., 5% CO2 in a humidified incubator. • h. Record fluorescence at an excitation wavelength of 544 nm and emission wavelength of 590 nm using a microplate reader.
# (§5) In the assays, cells are cultured with a test compound for approximately four days, the dye is then added to the cells and fluorescence of […] dye is detected after approximately four hours. Different types of cells can be utilized in the assays (e.g., HCT-116 human colorectal carcinoma cells, PC-3 human prostatic cancer cells and MiaPaca human pancreatic carcinoma cells).
row,IC50 [µM],SMILES
1,> 10,CC(=O)Nc1cccc(-c2nc3cc(C(=O)O)ccc3c3cnccc23)c1
2,> 10,"O=C(O)c1ccc2c(c1)nc(-c1ccccc1)c1ccncc12 [5-phenylbenzo[c][2,6]naphthyridine-8-carboxylic acid]"
3,> 10,Nc1cccc(-c2nc3cc(C(=O)O)ccc3c3cnccc23)c1
4,> 10,Cn1cc(-c2nc3cc(C(=O)O)ccc3c3cnccc23)cn1

# Target: T1, recombinant human CK2 (Homo sapiens, UniProt P68400)
# T1 construct: purchased Upstate
# Assay: Cell-free CK2 assay
# Type: biochemical
# Conditions: not given
# Procedure: Modulatory activity of compounds described herein is assessed in vitro in cell-free CK2 assays. These assays are described hereafter.
# Test compounds in aqueous solution are added at a volume of 10 microliters, to a reaction mixture comprising 10 microliters Assay Dilution Buffer (ADB; 20mM MOPS, pH 7.2, 25 mM beta-glycerolphosphate, 5 mM EGTA, 1 mM sodium orthovanadate and 1 mM dithiothreitol), 10 microliters of substrate peptide (RRRDDDSDDD (SEQ ID NO:4), dissolved in ADB at a concentration of 1 mM), 10 microliters of recombinant human CK2 (25 ng dissolved in ADB; Upstate). Reactions are initiated by the addition of 10 microliters of ATP Solution (90% 75 mM MgC12, 75 micromolar ATP dissolved in ADB; 10% [γ-^33P]ATP (stock 1 mCi/100 μl; 3000 Ci/mmol (Perkin Elmer) and maintained for 10 minutes at 30 degrees C. The reactions are quenched with 100 microliters of 0.75% phosphoric acid, then transferred to and filtered through a phosphocellulose filter plate (Millipore). After washing each well 5 times with 0.75% phosphoric acid, the plate is dried under vacuum for 5 min and, following the addition of 15 ul of scintillation fluid to each well, the residual radioactivity is measured using a Wallac […].
# T1 sequence (P68400 whole entry): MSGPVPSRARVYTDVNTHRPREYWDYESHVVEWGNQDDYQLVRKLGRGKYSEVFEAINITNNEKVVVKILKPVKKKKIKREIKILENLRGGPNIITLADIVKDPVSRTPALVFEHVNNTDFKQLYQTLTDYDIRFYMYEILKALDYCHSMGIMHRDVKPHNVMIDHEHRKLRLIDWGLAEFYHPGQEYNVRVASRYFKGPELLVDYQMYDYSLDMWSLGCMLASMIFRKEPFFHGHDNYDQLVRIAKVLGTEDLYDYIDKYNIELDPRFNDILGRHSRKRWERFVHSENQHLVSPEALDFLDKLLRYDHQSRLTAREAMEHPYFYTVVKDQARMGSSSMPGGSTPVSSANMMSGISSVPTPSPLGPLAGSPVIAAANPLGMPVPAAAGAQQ
# T1 sequence (P67870 whole entry partner): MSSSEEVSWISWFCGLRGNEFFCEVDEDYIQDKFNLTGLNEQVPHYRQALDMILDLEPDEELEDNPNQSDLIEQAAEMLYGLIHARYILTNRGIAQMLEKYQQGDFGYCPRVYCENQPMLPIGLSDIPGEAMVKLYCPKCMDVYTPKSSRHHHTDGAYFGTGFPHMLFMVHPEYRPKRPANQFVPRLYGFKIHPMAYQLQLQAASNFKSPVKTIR
row,IC50 [µM],SMILES
1,0.042,CC(=O)Nc1cccc(-c2nc3cc(C(=O)O)ccc3c3cnccc23)c1
2,0.144,CC(=O)Nc1cccc(-c2nc3cc(C(=O)NCCN4CCCC4)ccc3c3cnccc23)c1
3,0.106,O=C(O)c1ccc2c(c1)nc(-c1ccccc1F)c1ccncc12
4,0.013,"O=C(O)c1ccc2c(c1)nc(-c1ccccc1)c1ccncc12 [5-phenylbenzo[c][2,6]naphthyridine-8-carboxylic acid]"
5,0.027,Nc1cccc(-c2nc3cc(C(=O)O)ccc3c3cnccc23)c1
6,0.045,N#Cc1cccc(-c2nc3cc(C(=O)O)ccc3c3cnccc23)c1
7,0.004,Cn1cc(-c2nc3cc(C(=O)O)ccc3c3cnccc23)cn1

# Same assay, conditions: read-out: CK2: % inh 500 nM
row,inhibition at 0.5 µM [%],SMILES
1,-15,Cn1cc(-c2nc3cc(C(=O)NC4CC4)ccc3c3cnccc23)cn1
2,93,CC(=O)Nc1cccc(-c2nc3cc(C(=O)O)ccc3c3cnccc23)c1
3,89,CC(=O)Nc1cccc(-c2nc3cc(C(=O)NCCN4CCCC4)ccc3c3cnccc23)c1
4,56,Nc1cccc(-c2nc3cc(C(=O)NCCN4CCCC4)ccc3c3cnccc23)c1
5,-13,CN(C)C(=O)c1ccc2c(c1)nc(-c1cnn(C)c1)c1ccncc12
6,0,CN(C)C(=O)c1ccc2c(c1)nc(-c1ccccc1)c1ccncc12
7,9,CN1CCCCC1CNC(=O)c1ccc2c(c1)nc(-c1cccc(N)c1)c1ccncc12 (stereo not shown)
8,-35,Fc1ccc2c(c1)nc(-c1cccc(OC(F)(F)F)c1)c1ccncc12
9,11,COC(=O)c1ccc2c(c1)nc(-c1cnn(C)c1)c1nc(S(C)(=O)=O)ncc12
10,-5,Clc1ccc(-c2nc3ccccc3c3cnccc23)cc1
11,30,CC(=O)Nc1cccc(-c2nc3cc(C(=O)N4CCCN(C)CC4)ccc3c3cnccc23)c1
12,19,CC(=O)Nc1cccc(-c2nc3cc(C(=O)NN4CCOCC4)ccc3c3cnccc23)c1
13,23,O=C(O)c1ccc2c(c1)nc(-c1ccccc1OC(F)(F)F)c1ccncc12
14,-15,Cc1ccccc1-c1nc2ccccc2c2cnccc12
15,76,Cc1ccccc1-c1nc2cc(C(=O)O)ccc2c2cnccc12
16,-26,"COC(=O)c1ccc2c(c1)nc(-c1ccccc1)c1nc(SC)ncc12 [methyl 3-(methylthio)-5-phenylpyrimido[4,5-c]quinoline-8-carboxylate]"
17,-15,CN1CCCN(C(=O)c2ccc3c(c2)nc(-c2ccccc2)c2ccncc23)CC1
18,97,O=C(O)c1ccc2c(c1)nc(-c1ccccc1F)c1ccncc12
19,97,"O=C(O)c1ccc2c(c1)nc(-c1ccccc1)c1ccncc12 [5-phenylbenzo[c][2,6]naphthyridine-8-carboxylic acid]"
20,97,Nc1cccc(-c2nc3cc(C(=O)O)ccc3c3cnccc23)c1
21,98,N#Cc1cccc(-c2nc3cc(C(=O)O)ccc3c3cnccc23)c1
22,98,Cn1cc(-c2nc3cc(C(=O)O)ccc3c3cnccc23)cn1

# System: K562
# Assay: Cell proliferation assay (Alamar Blue), K562
# Type: cell-based
# Conditions: Homo sapiens; K562 cell line
# Procedure: as §1, §2, §3, §4, §5
row,IC50 [µM],SMILES
1,> 10,CC(=O)Nc1cccc(-c2nc3cc(C(=O)O)ccc3c3cnccc23)c1
2,> 10,CN(C)C(=O)c1ccc2c(c1)nc(-c1cnn(C)c1)c1ccncc12
3,> 10,CN(C)C(=O)c1ccc2c(c1)nc(-c1ccccc1)c1ccncc12
4,> 10,CN1CCCCC1CNC(=O)c1ccc2c(c1)nc(-c1cccc(N)c1)c1ccncc12 (stereo not shown)
5,> 10,Clc1ccc(-c2nc3ccccc3c3cnccc23)cc1
6,> 10,Cc1ccccc1-c1nc2ccccc2c2cnccc12
7,> 10,Cc1ccccc1-c1nc2cc(C(=O)O)ccc2c2cnccc12
8,> 10,CN1CCCN(C(=O)c2ccc3c(c2)nc(-c2ccccc2)c2ccncc23)CC1
9,> 10,O=C(O)c1ccc2c(c1)nc(-c1ccccc1F)c1ccncc12
10,> 10,"O=C(O)c1ccc2c(c1)nc(-c1ccccc1)c1ccncc12 [5-phenylbenzo[c][2,6]naphthyridine-8-carboxylic acid]"
11,> 10,Cn1cc(-c2nc3cc(C(=O)O)ccc3c3cnccc23)cn1

# System: MiaPaca human pancreatic carcinoma cells
# Assay: Cell proliferation assay (Alamar Blue), MiaPaCa
# Type: cell-based
# Conditions: MIA PaCa-2, MiaPaCa cell line
# Procedure: as §1, §2, §3, §4, §5
row,IC50 [µM],SMILES
1,> 10,CC(=O)Nc1cccc(-c2nc3cc(C(=O)O)ccc3c3cnccc23)c1
2,> 10,CN1CCCCC1CNC(=O)c1ccc2c(c1)nc(-c1cccc(N)c1)c1ccncc12 (stereo not shown)
3,> 10,Clc1ccc(-c2nc3ccccc3c3cnccc23)cc1
4,> 10,O=C(O)c1ccc2c(c1)nc(-c1ccccc1OC(F)(F)F)c1ccncc12
5,> 10,Cc1ccccc1-c1nc2ccccc2c2cnccc12
6,> 10,Cc1ccccc1-c1nc2cc(C(=O)O)ccc2c2cnccc12
7,> 10,O=C(O)c1ccc2c(c1)nc(-c1ccccc1F)c1ccncc12
8,> 10,"O=C(O)c1ccc2c(c1)nc(-c1ccccc1)c1ccncc12 [5-phenylbenzo[c][2,6]naphthyridine-8-carboxylic acid]"
9,> 10,Nc1cccc(-c2nc3cc(C(=O)O)ccc3c3cnccc23)c1
10,> 10,N#Cc1cccc(-c2nc3cc(C(=O)O)ccc3c3cnccc23)c1
11,> 10,Cn1cc(-c2nc3cc(C(=O)O)ccc3c3cnccc23)cn1

# System: HCT-116 human colorectal carcinoma cells
# Assay: Cell proliferation assay (Alamar Blue), HCT-116
# Type: cell-based
# Conditions: HCT-116 cell line
# Procedure: as §1, §2, §3, §4, §5
row,IC50 [µM],SMILES
1,1,Cn1cc(-c2nc3cc(C(=O)NC4CC4)ccc3c3cnccc23)cn1
2,> 10,CC(=O)Nc1cccc(-c2nc3cc(C(=O)O)ccc3c3cnccc23)c1
3,> 10,CC(=O)Nc1cccc(-c2nc3cc(C(=O)NCCN4CCCC4)ccc3c3cnccc23)c1
4,> 10,Nc1cccc(-c2nc3cc(C(=O)NCCN4CCCC4)ccc3c3cnccc23)c1
5,> 10,CN(C)C(=O)c1ccc2c(c1)nc(-c1cnn(C)c1)c1ccncc12
6,> 10,CN(C)C(=O)c1ccc2c(c1)nc(-c1ccccc1)c1ccncc12
7,> 10,CN1CCCCC1CNC(=O)c1ccc2c(c1)nc(-c1cccc(N)c1)c1ccncc12 (stereo not shown)
8,0.9,COC(=O)c1ccc2c(c1)nc(-c1cnn(C)c1)c1nc(S(C)(=O)=O)ncc12
9,> 10,Clc1ccc(-c2nc3ccccc3c3cnccc23)cc1
10,> 10,CC(=O)Nc1cccc(-c2nc3cc(C(=O)N4CCCN(C)CC4)ccc3c3cnccc23)c1
11,> 10,CC(=O)Nc1cccc(-c2nc3cc(C(=O)NN4CCOCC4)ccc3c3cnccc23)c1
12,> 10,O=C(O)c1ccc2c(c1)nc(-c1ccccc1OC(F)(F)F)c1ccncc12
13,> 10,Cc1ccccc1-c1nc2ccccc2c2cnccc12
14,> 10,Cc1ccccc1-c1nc2cc(C(=O)O)ccc2c2cnccc12
15,2,"COC(=O)c1ccc2c(c1)nc(-c1ccccc1)c1nc(SC)ncc12 [methyl 3-(methylthio)-5-phenylpyrimido[4,5-c]quinoline-8-carboxylate]"
16,> 10,CN1CCCN(C(=O)c2ccc3c(c2)nc(-c2ccccc2)c2ccncc23)CC1
17,> 10,O=C(O)c1ccc2c(c1)nc(-c1ccccc1F)c1ccncc12
18,> 10,"O=C(O)c1ccc2c(c1)nc(-c1ccccc1)c1ccncc12 [5-phenylbenzo[c][2,6]naphthyridine-8-carboxylic acid]"
19,> 10,Nc1cccc(-c2nc3cc(C(=O)O)ccc3c3cnccc23)c1
20,> 10,N#Cc1cccc(-c2nc3cc(C(=O)O)ccc3c3cnccc23)c1
21,> 10,Cn1cc(-c2nc3cc(C(=O)O)ccc3c3cnccc23)cn1

# System: PC-3 human prostatic cancer cells
# Assay: Cell proliferation assay (Alamar Blue), PC3
# Type: cell-based
# Conditions: PC3 cell line
# Procedure: as §1, §2, §3, §4, §5
row,IC50 [µM],SMILES
1,> 10,CN1CCCCC1CNC(=O)c1ccc2c(c1)nc(-c1cccc(N)c1)c1ccncc12 (stereo not shown)
2,> 10,Clc1ccc(-c2nc3ccccc3c3cnccc23)cc1
3,> 10,O=C(O)c1ccc2c(c1)nc(-c1ccccc1OC(F)(F)F)c1ccncc12
4,> 10,Cc1ccccc1-c1nc2ccccc2c2cnccc12
5,> 10,Cc1ccccc1-c1nc2cc(C(=O)O)ccc2c2cnccc12
6,4.1,O=C(O)c1ccc2c(c1)nc(-c1ccccc1F)c1ccncc12
7,> 10,N#Cc1cccc(-c2nc3cc(C(=O)O)ccc3c3cnccc23)c1

# System: MDA-MB231
# Assay: Cell proliferation assay (Alamar Blue), MDA-MB231
# Type: cell-based
# Conditions: Homo sapiens, MDA-MB-231; MDA-MB231 cell line
# Procedure: as §1, §2, §3, §4, §5
row,IC50 [µM],SMILES
1,> 10,CC(=O)Nc1cccc(-c2nc3cc(C(=O)O)ccc3c3cnccc23)c1
2,> 10,"O=C(O)c1ccc2c(c1)nc(-c1ccccc1)c1ccncc12 [5-phenylbenzo[c][2,6]naphthyridine-8-carboxylic acid]"
3,> 10,Nc1cccc(-c2nc3cc(C(=O)O)ccc3c3cnccc23)c1
4,> 10,Cn1cc(-c2nc3cc(C(=O)O)ccc3c3cnccc23)cn1

# System: MV-4-11
# Assay: Cell proliferation assay (Alamar Blue), MV-4-11
# Type: cell-based
# Conditions: Homo sapiens, MV4-11; MV-4-11 cell line
# Procedure: as §1, §2, §3, §4, §5
row,IC50 [µM],SMILES
1,2.7,Cn1cc(-c2nc3cc(C(=O)NC4CC4)ccc3c3cnccc23)cn1
2,> 10,CC(=O)Nc1cccc(-c2nc3cc(C(=O)O)ccc3c3cnccc23)c1
3,> 10,CN(C)C(=O)c1ccc2c(c1)nc(-c1cnn(C)c1)c1ccncc12
4,> 10,CN(C)C(=O)c1ccc2c(c1)nc(-c1ccccc1)c1ccncc12
5,> 10,CN1CCCCC1CNC(=O)c1ccc2c(c1)nc(-c1cccc(N)c1)c1ccncc12 (stereo not shown)
6,> 10,CN1CCCN(C(=O)c2ccc3c(c2)nc(-c2ccccc2)c2ccncc23)CC1
7,> 10,O=C(O)c1ccc2c(c1)nc(-c1ccccc1F)c1ccncc12
8,8.1,"O=C(O)c1ccc2c(c1)nc(-c1ccccc1)c1ccncc12 [5-phenylbenzo[c][2,6]naphthyridine-8-carboxylic acid]"
9,> 10,Nc1cccc(-c2nc3cc(C(=O)O)ccc3c3cnccc23)c1
10,> 10,Cn1cc(-c2nc3cc(C(=O)O)ccc3c3cnccc23)cn1
